From patent US20090042964A1, “AMINO-5-[SUBSTITUTED-4-(DIFLUOROMETHOXY)PHENYL]-5-PHENYLIMIDAZOLONE COMPOUNDS AS BETA-SECRETASE INHIBITORS” (Wyeth, priority 2007, published 2009) come the findings set out here.

The test deals with human BACE1 (Homo sapiens, UniProt P56817). Briefly: Fluorescent kinetic assay, evaluation of BACE1 binding affinity of test compounds. Format: biochemical. Conditions: 10 nM human BACE1, 25 μM substrate WABC-6, pH 4.5, room temperature. How it is done:
Concentration is determined by absorbance at 354 nm using an extinction coefficient of 18172 M^-1 cm^-1, the concentration of stock substrate is corrected, and the substrate stock stored in small aliquots in -80° C. […] Determination of Stock Enzyme Concentration: the stock concentration of each enzyme is determined by absorbance at 280 nm using an of 64150 M^-1 cm^-1 for hBACE1 and MuBACE1, 62870 M^-1 cm^-1 for hBACE2 in 6 M Guanidinium Hydrochloride (from Research Organics, Cat. # 5134G-2), pH 6. […] Biochem. 182, 319-326). Dilution and mixing steps: total reaction volume: 100 μL 2× inhibitor dilutions in buffer A (66.7 mM Na-Acetate, pH 4.5, 0.0667% CHAPS) were prepared, 4× enzyme dilution in buffer A (66.7 mM Na-Acetate, pH 4.5, 0.0667% CHAPS) were prepared, 100 μM substrate dilution in 1×PBS was prepared, and 50 μL 2× Inhibitor, 25 μL 100 μM substrate are added to each well of 96-well plate (from DYNEX Technologies, VWR #: 11311-046), immediately followed by 25 μL 4× enzyme (added to the inhibitor and substrate mix), and the fluorescence readings are initiated.

Where two headings read alike, the source gives them in different places.

Sequence of human BACE1 (P56817 46-501): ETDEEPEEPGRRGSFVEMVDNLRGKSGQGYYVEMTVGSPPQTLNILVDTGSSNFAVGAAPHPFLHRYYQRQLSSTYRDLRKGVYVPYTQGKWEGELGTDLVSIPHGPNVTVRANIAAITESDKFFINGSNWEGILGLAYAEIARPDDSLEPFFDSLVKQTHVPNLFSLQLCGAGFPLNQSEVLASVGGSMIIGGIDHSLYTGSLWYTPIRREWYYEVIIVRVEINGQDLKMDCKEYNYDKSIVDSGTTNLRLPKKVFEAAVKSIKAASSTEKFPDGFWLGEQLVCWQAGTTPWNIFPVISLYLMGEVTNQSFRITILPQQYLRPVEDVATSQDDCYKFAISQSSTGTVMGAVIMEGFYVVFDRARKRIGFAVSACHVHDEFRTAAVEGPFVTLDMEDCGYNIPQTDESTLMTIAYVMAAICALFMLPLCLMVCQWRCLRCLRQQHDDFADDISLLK

One may read the IC50 as the concentration at which inhibition is half-maximal. Turning to `Cc1cc([C@@]2(c3ccc(F)c(OCCCF)c3)N=C(N)N(C)C2=O)ccc1OC(F)F` [Example 110, (5S)-2-Amino-5-[4-(difluoromethoxy)-3-methylphenyl]-5-[4-fluoro-3-(3-fluoropropoxy)phenyl]-3-methyl-3,5-dihydro-4H-imidazol-4-one], the 50% inhibitory concentration (IC50) (read-out: BACE1 IC50) was in the range of 0.11 to 1 µM.
Still for that read-out and setting: next, `CC(C)c1cc(C2(c3ccccc3)N=C(N)N(C)C2=O)ccc1OC(F)F` (centres unmarked) [Example 137, 2-Amino-5-[4-(difluoromethoxy)-3-isopropylphenyl]-3-methyl-5-phenyl-3,5-dihydro-4H-imidazol-4-one]: 0.11 to 1 µM.
On the same count and under the same terms, in the case of `CCc1cc(C2(c3ccc(F)c(C#CCOC)c3)N=C(N)N(C)C2=O)ccc1OC(F)F` (centres unmarked) [Example 152, 2-Amino-5-[4-(difluoromethoxy)-3-ethylphenyl]-5-[4-fluoro-3-(3-methoxyprop-1-yn-1-yl)phenyl]-3-methyl-3,5-dihydro-4H-imidazol-4-one] it was less than 0.1 µM; in that of `CN1C(=O)[C@](c2cccc(Br)c2)(c2ccc(OC(F)F)c(C3CC3)c2)N=C1N` (single isomer, unassigned) [Example 165], less than 0.1 µM.
For the compound `CN1C(=O)[C@](c2ccccc2)(c2ccc(OC(F)F)c(Cl)c2)N=C1N` [Example 27, (5S)-2-Amino-5-[3-chloro-4-(difluoromethoxy)phenyl]-1-methyl-5-phenyl-3,5-dihydro-4H-imidazol-4-one], the 50% inhibitory concentration (IC50) (BACE1 IC50 μM) is 0.11 to 1 µM.
Take `Cc1cc([C@]2(c3ccc(F)c(OCCF)c3)N=C(N)N(C)C2=O)ccc1OC(F)F` [Example 113, (5R)-2-Amino-5-[4-(difluoromethoxy)-3-methylphenyl]-5-[4-fluoro-3-(2-fluoroethoxy)phenyl]-3-methyl-3,5-dihydro-4H-imidazol-4-one]: for the setting “read-out: BACE1 IC50”, the 50% inhibitory concentration (IC50) was less than 0.1 µM.
Still for that read-out and setting: in the case of `CN1C(=O)[C@@](c2ccc(F)c(C#CC3CC3)c2)(c2ccc(OC(F)F)c(CCF)c2)N=C1N` (single isomer, unassigned) [Example 94] it was 0.11 to 1 µM; in that of `Cc1cc([C@@]2(c3cccc(C#CCF)c3)N=C(N)N(C)C2=O)ccc1OC(F)F` [Example 200, (5R)-2-amino-5-[4-(difluoromethoxy)-3-methylphenyl]-5-[3-(3-fluoroprop-1-yn-1-yl)phenyl]-3-methyl-3,5-dihydro-4H-imidazol-4-one], more than 1 µM; in that of `COCC#Cc1cccc(C2(c3ccc(OC(F)F)c(C4CC4)c3)N=C(N)N(C)C2=O)c1` (centres unmarked) [Example 180, 2-amino-4-(3-cyclopropyl-4-(difluoromethoxy)phenyl)-4-(3-(3-methoxyprop-1-ynyl)phenyl)-1-methyl-1H-imidazol-5(4H)-one], less than 0.1 µM.
Still for that read-out and setting: in the case of `CN1C(=O)[C@@](c2ccccc2)(c2ccc(OC(F)F)c(CCCl)c2)N=C1N` [Example 144, (5R)-2-Amino-5-[3-(2-chloroethyl)-4-(difluoromethoxy)phenyl]-3-methyl-5-phenyl-dihydro-4H-imidazol-4-one] it was more than 1 µM.
Take `CCCc1cc(C2(c3ccccc3)N=C(N)N(C)C2=O)ccc1OC(F)F` (centres unmarked) [Example 8, 2-Amino-5-[4-(difluoromethoxy)-3-propylphenyl]-3-methyl-5-phenyl-3,5-dihydro-4H-imidazol-4-one]: the concentration for half-maximal inhibition (IC50) (BACE1 IC50 μM) lay in the range of 0.11 to 1 µM.
On to `CN1C(=O)C(c2ccc(OC(F)F)c(C3CC3)c2)(c2ccc(OC(F)F)c(C3CC3)c2)N=C1N` [Example 194, 2-amino-4,4-bis(3-cyclopropyl-4-(difluoromethoxy)phenyl)-1-methyl-1H-imidazol-5(4H)-one], for which the 50% inhibitory concentration (IC50) (read-out: BACE1 IC50) lay in the range of 0.11 to 1 µM.
Consider `C/C=C/c1cc(C2(c3ccc(OC(F)F)c(C)c3)N=C(N)N(C)C2=O)ccc1F` (centres unmarked) [Example 59, 2-Amino-5-[4-(difluoromethoxy)-3-methylphenyl]-5-[4-fluoro-3-((E)-prop-1-enyl)phenyl]-3-methyl-3,5-dihydro-4H-imidazol-4-one], for which, for the setting “read-out: BACE1 IC50”, the IC50 was less than 0.1 µM.
Still for that read-out and setting: in the case of `CC(C)C#Cc1cccc([C@]2(c3ccc(OC(F)F)c(C4CC4)c3)N=C(N)N(C)C2=O)c1` (single isomer, unassigned) [Example 175] it was more than 1 µM.
On to `C=Cc1cc(C2(c3ccccc3)N=C(N)N(C)C2=O)ccc1OC(F)F` (centres unmarked) [Example 11, 2-Amino-5-[4-(difluoromethoxy)-3-vinylphenyl)-3-methyl-5-phenyl-3,5-dihydro-4H-imidazol-4-one], for which the IC50 (BACE1 IC50 μM) fell in the range of 0.11 to 1 µM.
In the case of `CCC#Cc1cc(C2(c3ccc(OC(F)F)c(CCF)c3)N=C(N)N(C)C2=O)ccc1F` (centres unmarked) [Example 89, 2-amino-5-(3-but-1-yn-1-yl-4-fluorophenyl)-5-[4-(difluoromethoxy)-3-(2-fluoroethyl)phenyl]-3-methyl-3,5-dihydro-4H-imidazol-4-one], the IC50 (read-out: BACE1 IC50) was less than 0.1 µM.
The same measure, in the same setting: in the case of `CCOc1cc(C2(c3ccc(OC(F)F)c(C)c3)N=C(N)N(C)C2=O)ccc1F` (centres unmarked) [Example 101, 2-Amino-5-[4-(difluoromethoxy)-3-methylphenyl]-5-(3-ethoxy-4-fluorophenyl)-3-methyl-3,5-dihydro-4H-imidazol-4-one] it was less than 0.1 µM.
On to `CN1C(=O)C(c2ccccc2)(c2ccc(OC(F)F)c(F)c2)N=C1N` (centres unmarked) [Example 17, 2-Amino-5-[4-(difluoromethoxy)-3-fluorophenyl]-3-methyl-5-phenyl-3,5-dihydro-4H-imidazol-4-one], for which, under “BACE1 IC50 μM”, the IC50 was in the range of 0.11 to 1 µM.
As to `CN1C(=O)[C@](c2cccc(C#CCCCO)c2)(c2ccc(OC(F)F)c(C3CC3)c2)N=C1N` (single isomer, unassigned) [Example 190], the IC50 (read-out: BACE1 IC50) was less than 0.1 µM.
The same measure, in the same setting: in the case of `CN1C(=O)[C@@](c2cccc(C#CCCCF)c2)(c2ccc(OC(F)F)c(C3CC3)c2)N=C1N` (single isomer, unassigned) [Example 193] it was 0.11 to 1 µM; in that of `CCC#Cc1cccc(C2(c3ccc(OC(F)F)c(C)c3)N=C(N)N(C)C2=O)c1` (centres unmarked) [Example 81, 2-amino-4-(3-(but-1-ynyl)phenyl)-4-(4-(difluoromethoxy)-3-methylphenyl)-1-methyl-1H-imidazol-5(4H)-one], less than 0.1 µM; in that of `CN1C(=O)C(c2cccc(OCCF)c2)(c2ccc(OC(F)F)c(Cl)c2)N=C1N` (centres unmarked) [Example 37, 2-Amino-5-[3-chloro-4-(difluoromethoxy)phenyl]-5-[3-(2-fluoroethoxy)phenyl]-3-methyl-3,5-dihydro-4H-imidazol-4-one], less than 0.1 µM.
On the same count and under the same terms, next, `Cc1cccc(C2(c3ccc(OC(F)F)c(C)c3)N=C(N)N(C)C2=O)c1` (centres unmarked) [Example 77, 2-amino-5-[4-(difluoromethoxy)-3-methylphenyl]-3-methyl-5-(3-methylphenyl)-3,5-dihydro-4H-imidazol-4-one]: 0.11 to 1 µM; `CCc1cc(C2(c3ccc(F)c(C#CC(C)C)c3)N=C(N)N(C)C2=O)ccc1OC(F)F` (centres unmarked) [Example 153, 2-Amino-5-[4-(difluoromethoxy)-3-ethylphenyl]-5-[4-fluoro-3-(3-methylbut-1-yn-1-yl)phenyl]-3-methyl-3,5-dihydro-4H-imidazol-4-one]: less than 0.1 µM.
On the same count and under the same terms, next, `CCCC#Cc1cc(C2(c3ccc(OC(F)F)c(CCF)c3)N=C(N)N(C)C2=O)ccc1F` (centres unmarked) [Example 88, 2-amino-5-[4-(difluoromethoxy)-3-(2-fluoroethyl)phenyl]-5-(4-fluoro-3-pent-1-yn-1-ylphenyl)-3-methyl-3,5-dihydro-4H-imidazol-4-one]: less than 0.1 µM.
As to `Cc1cc([C@]2(c3cccc(OCCC(F)F)c3)N=C(N)N(C)C2=O)ccc1OC(F)F` [Example 127, (5R)-2-Amino-5-[4-(difluoromethoxy)-3-methylphenyl]-5-[3-(3,3-difluoropropoxy)phenyl]-3-methyl-3,5-dihydro-4H-imidazol-4-one], the IC50 (read-out: BACE1 IC50) is less than 0.1 µM.
Same read-out and setting: in the case of “2-Amino-5-[3-chloro-4-(difluoromethoxy)phenyl]-3-methyl-5-phenyl-3,5-dihydro-4H-imidazol-4-one [Example 16]” it was 0.11 to 1 µM; in that of `Cc1cc([C@]2(c3ccc(F)cc3)N=C(N)N(C)C2=O)ccc1OC(F)F` [Example 4A, (5S)-2-Amino-4-(4-(difluoromethoxy)-3-methylphenyl)-4-(4-fluorophenyl)-1-methyl-1H-imidazol-5(4H)-one], more than 1 µM.
Take `Cc1cc(C2(c3ccc(F)c(CF)c3)N=C(N)N(C)C2=O)ccc1OC(F)F` (centres unmarked) [Example 22, 2-Amino-5-[4-(difluoromethoxy)-3-methylphenyl]-5-[4-fluoro-3-(fluoromethyl)phenyl]-3-methyl-3,5-dihydro-4H-imidazol-4-one]: the IC50 (BACE1 IC50 μM) lay in the range of 0.11 to 1 µM.
For the compound `CCC#Cc1cccc(C2(c3ccc(OC(F)F)c(C4CC4)c3)N=C(N)N(C)C2=O)c1` (centres unmarked) [Example 171, 2-amino-4-(3-(but-1-ynyl)phenyl)-4-(3-cyclopropyl-4-(difluoromethoxy)phenyl)-1-methyl-1H-imidazol-5(4H)-one], the IC50 (read-out: BACE1 IC50) is less than 0.1 µM.
Regarding `CN1C(=O)C(c2cccc(OCCCF)c2)(c2ccc(OC(F)F)c(Cl)c2)N=C1N` (centres unmarked) [Example 40, 2-Amino-5-[3-chloro-4-(difluoromethoxy)phenyl]-5-[3-(3-fluoropropoxy)phenyl]-3-methyl-3,5-dihydro-4H-imidazol-4-one], the IC50 (read-out: BACE1 IC50) was less than 0.1 µM.
Same read-out and setting: in the case of `CCc1cc(C2(c3ccc(F)c(C#CC4CC4)c3)N=C(N)N(C)C2=O)ccc1OC(F)F` (centres unmarked) [Example 146, 2-Amino-5-[3-(cyclopropylethynyl)-4-fluorophenyl]-5-[4-(difluoromethoxy)-3-ethylphenyl]-3-methyl-3,5-dihydro-4H-imidazol-4-one] it was less than 0.1 µM.
